The results in this text go back to ChEMBL document CHEMBL2203015, “Synthesis and biological evaluation of 5-aryloxypyrazole derivatives bearing a rhodanine-3-aromatic acid as potential antimicrobial agents” (Bioorg Med Chem Lett, 2012).

In brackets after ≈: the same amount, converted by molar mass.

Holding throughout (type): functional
The test system of test [1] is Staphylococcus aureus. The test can be described thus: Potency index, ratio of MIC for norfloxacin to MIC for compound against quinolone-resistant Staphylococcus aureus CCARM 3519 incubated for 24 hrs serial dilution method.
In test [2] the test system is Staphylococcus aureus. As to the kind of experiment: Antibacterial activity against multidrug-resistant Staphylococcus aureus CCARM 3506 incubated for 24 hrs serial dilution method. To be noted: CCARM 3506, 24 h.
The subject of test [3] is Staphylococcus aureus. As to the kind of experiment: Antibacterial activity against quinolone-resistant Staphylococcus aureus CCARM 3519 incubated for 24 hrs serial dilution method. The conditions noted are these: CCARM 3519, 24 h.
The test system of test [4] is Staphylococcus aureus. As to the kind of experiment: Antibacterial activity against Staphylococcus aureus KCTC 503 incubated for 24 hrs serial dilution method. The conditions noted are these: KCTC 503, 24 h.
Test [5] concerns Staphylococcus aureus. As to the kind of experiment: Antibacterial activity against Staphylococcus aureus RN 4220 incubated for 24 hrs serial dilution method. To be noted: RN 4220, 24 h.
The test system of test [6] is Staphylococcus aureus. The test can be described thus: Antibacterial activity against multidrug-resistant Staphylococcus aureus CCARM 3167 incubated for 24 hrs serial dilution method. The conditions noted are these: CCARM 3167, 24 h.
Another test concerns Escherichia coli. The test can be described thus: Antibacterial activity against Escherichia coli 1356 incubated for 24 hrs serial dilution method. To be noted: Escherichia coli, 1356, 24 h.
The subject of test [7] is Staphylococcus aureus. As to the kind of experiment: Antibacterial activity against quinolone-resistant Staphylococcus aureus CCARM 3505 incubated for 24 hrs serial dilution method. The conditions noted are these: CCARM 3505, 24 h.
The subject of test [8] is Staphylococcus aureus. The test can be described thus: Antibacterial activity against Staphylococcus aureus KCTC 209 incubated for 24 hrs serial dilution method. To be noted: KCTC 209, 24 h.
For test [9], the system named is Staphylococcus aureus. The test can be described thus: Potency index, ratio of MIC for norfloxacin to MIC for compound against multidrug-resistant Staphylococcus aureus CCARM 3167 incubated for 24 hrs serial dilution method.
For test [10], the system named is Staphylococcus aureus. As to the kind of experiment: Potency index, ratio of MIC for norfloxacin to MIC for compound against quinolone-resistant Staphylococcus aureus CCARM 3505 incubated for 24 hrs serial dilution method.
The subject of test [11] is Staphylococcus aureus. As to the kind of experiment: Potency index, ratio of MIC for norfloxacin to MIC for compound against multidrug-resistant Staphylococcus aureus CCARM 3506 incubated for 24 hrs serial dilution method.

On to `COc1ccc(Oc2c(/C=C3\SC(=S)N([C@@H](Cc4ccccc4)C(=O)O)C3=O)c(C)nn2-c2ccccc2)cc1`, for which the Ratio is 4 with Staphylococcus aureus [1], 2 in the test with Staphylococcus aureus [9], 4 in the test on Staphylococcus aureus [10] and 2 in the test on Staphylococcus aureus [11]. Also, the MIC with Staphylococcus aureus [2] was 4 µg/mL (≈ 7 µM); in the test on Staphylococcus aureus [3], 8 µg/mL (≈ 14 µM); in the test with Staphylococcus aureus [4] it was greater than 64 µg/mL; with Staphylococcus aureus [5], 8 µg/mL (≈ 14 µM); against Staphylococcus aureus [6], 4 µg/mL (≈ 7 µM); in the test with Escherichia coli, greater than 64 µg/mL. Besides, the MIC against Staphylococcus aureus [7] is 8 µg/mL (≈ 14 µM); against Staphylococcus aureus [8], greater than 64 µg/mL.
In the case of `Cc1cccc(Oc2c(/C=C3\SC(=S)N([C@@H](Cc4ccccc4)C(=O)O)C3=O)c(C)nn2-c2ccccc2)c1`, the Ratio stood at 4 in the test on Staphylococcus aureus [1], 2 with Staphylococcus aureus [9], 4 with Staphylococcus aureus [10] and 2 with Staphylococcus aureus [11]. Also, the MIC is 4 µg/mL (≈ 7.2 µM) in the test on Staphylococcus aureus [2]; 8 µg/mL (≈ 14.4 µM) in the test on Staphylococcus aureus [3]; greater than 64 µg/mL against Staphylococcus aureus [4]; 4 µg/mL (≈ 7.2 µM) in the test with Staphylococcus aureus [5]; 4 µg/mL (≈ 7.2 µM) against Staphylococcus aureus [6]; greater than 64 µg/mL in the test on Escherichia coli. For the same compound, the MIC with Staphylococcus aureus [7] is 4 µg/mL (≈ 7.2 µM); with Staphylococcus aureus [8], greater than 64 µg/mL.
Consider `Cc1nn(-c2ccccc2)c(Oc2cccc(C(F)(F)F)c2)c1/C=C1\SC(=S)N([C@@H](Cc2ccccc2)C(=O)O)C1=O`, for which the Ratio in the test with Staphylococcus aureus [1] was 4; in the test with Staphylococcus aureus [9], 2; in the test with Staphylococcus aureus [10] it was 4; in the test with Staphylococcus aureus [11] it was 2. The MIC was 4 µg/mL (≈ 6.56 µM) against Staphylococcus aureus [2]; 8 µg/mL (≈ 13.1 µM) against Staphylococcus aureus [3]; greater than 64 µg/mL against Staphylococcus aureus [4]; 4 µg/mL (≈ 6.56 µM) in the test with Staphylococcus aureus [5]; 4 µg/mL (≈ 6.56 µM) in the test with Staphylococcus aureus [6]; greater than 64 µg/mL with Escherichia coli. Besides, the MIC was 4 µg/mL (≈ 6.56 µM) against Staphylococcus aureus [7] and greater than 64 µg/mL with Staphylococcus aureus [8].
On to `Cc1nn(-c2ccccc2)c(Oc2ccc(F)cc2)c1/C=C1\SC(=S)N([C@@H](Cc2ccccc2)C(=O)O)C1=O`, for which the Ratio is listed as 4 in the test with Staphylococcus aureus [1], 2 in the test on Staphylococcus aureus [9], 4 in the test on Staphylococcus aureus [10] and 2 with Staphylococcus aureus [11]. The minimum inhibitory concentration (MIC) is 8 µg/mL (≈ 14.3 µM) against Staphylococcus aureus [2]; 8 µg/mL (≈ 14.3 µM) against Staphylococcus aureus [3]; greater than 64 µg/mL against Staphylococcus aureus [4]; 8 µg/mL (≈ 14.3 µM) against Staphylococcus aureus [5]; 4 µg/mL (≈ 7.15 µM) against Staphylococcus aureus [6]; greater than 64 µg/mL in the test on Escherichia coli. Besides, the MIC with Staphylococcus aureus [7] is 8 µg/mL (≈ 14.3 µM); in the test on Staphylococcus aureus [8] it was greater than 64 µg/mL.
Regarding `Cc1ccc(Oc2c(/C=C3\SC(=S)N([C@@H](Cc4ccccc4)C(=O)O)C3=O)c(C)nn2-c2ccccc2)c(C)c1`, the Ratio in the test on Staphylococcus aureus [1] turned out to be 4; in the test with Staphylococcus aureus [9], 2; with Staphylococcus aureus [10] it was 4; in the test on Staphylococcus aureus [11], 2. The MIC was 2 µg/mL (≈ 3.51 µM) with Staphylococcus aureus [2]; 2 µg/mL (≈ 3.51 µM) in the test on Staphylococcus aureus [3]; greater than 64 µg/mL with Staphylococcus aureus [4]; 2 µg/mL (≈ 3.51 µM) against Staphylococcus aureus [5]; 2 µg/mL (≈ 3.51 µM) against Staphylococcus aureus [6]; greater than 64 µg/mL in the test with Escherichia coli. Besides, the minimum inhibitory concentration (MIC) was 2 µg/mL (≈ 3.51 µM) against Staphylococcus aureus [7] and greater than 64 µg/mL in the test with Staphylococcus aureus [8].
Turning to `Cc1ccccc1Oc1c(/C=C2\SC(=S)N([C@@H](Cc3ccccc3)C(=O)O)C2=O)c(C)nn1-c1ccccc1`, the Ratio is reported as 4 in the test on Staphylococcus aureus [1], 2 in the test on Staphylococcus aureus [9], 4 with Staphylococcus aureus [10] and 2 in the test with Staphylococcus aureus [11]. The MIC in the test with Staphylococcus aureus [2] is 8 µg/mL (≈ 14.4 µM); against Staphylococcus aureus [3], 8 µg/mL (≈ 14.4 µM); against Staphylococcus aureus [4], greater than 64 µg/mL; against Staphylococcus aureus [5] it was 4 µg/mL (≈ 7.2 µM); in the test with Staphylococcus aureus [6], 4 µg/mL (≈ 7.2 µM); in the test on Escherichia coli, greater than 64 µg/mL. Moreover, the MIC against Staphylococcus aureus [7] was 8 µg/mL (≈ 14.4 µM); against Staphylococcus aureus [8] it was greater than 64 µg/mL.
`Cc1nn(-c2ccccc2)c(Oc2ccc(Cl)cc2)c1/C=C1\SC(=S)N([C@@H](Cc2ccccc2)C(=O)O)C1=O`: the Ratio in the test on Staphylococcus aureus [1] is recorded as 4; in the test with Staphylococcus aureus [9], 2; with Staphylococcus aureus [10] it was 4; in the test with Staphylococcus aureus [11], 2. In addition, the MIC was 4 µg/mL (≈ 6.94 µM) against Staphylococcus aureus [2]; 4 µg/mL (≈ 6.94 µM) against Staphylococcus aureus [3]; greater than 64 µg/mL against Staphylococcus aureus [4]; 4 µg/mL (≈ 6.94 µM) in the test on Staphylococcus aureus [5]; 2 µg/mL (≈ 3.47 µM) with Staphylococcus aureus [6]; greater than 64 µg/mL against Escherichia coli. In addition, the MIC was 4 µg/mL (≈ 6.94 µM) with Staphylococcus aureus [7] and greater than 64 µg/mL with Staphylococcus aureus [8].
For `Cc1ccc(Oc2c(/C=C3\SC(=S)N([C@@H](Cc4c[nH]c5ccccc45)C(=O)O)C3=O)c(C)nn2-c2ccccc2)cc1`, the MIC was 2 µg/mL (≈ 3.36 µM) against Staphylococcus aureus [2]; 4 µg/mL (≈ 6.73 µM) in the test on Staphylococcus aureus [3]; greater than 64 µg/mL with Staphylococcus aureus [4]; 4 µg/mL (≈ 6.73 µM) against Staphylococcus aureus [5]; 2 µg/mL (≈ 3.36 µM) in the test with Staphylococcus aureus [6]; greater than 64 µg/mL against Escherichia coli. Also, the MIC in the test on Staphylococcus aureus [7] was 4 µg/mL (≈ 6.73 µM); with Staphylococcus aureus [8], greater than 64 µg/mL.
`Cc1ccc(Oc2c(/C=C3\SC(=S)N([C@@H](Cc4ccc(O)cc4)C(=O)O)C3=O)c(C)nn2-c2ccccc2)c(C)c1`: the MIC is 8 µg/mL (≈ 13.7 µM) against Staphylococcus aureus [2]; 8 µg/mL (≈ 13.7 µM) against Staphylococcus aureus [3]; greater than 64 µg/mL in the test on Staphylococcus aureus [4]; 8 µg/mL (≈ 13.7 µM) against Staphylococcus aureus [5]; 8 µg/mL (≈ 13.7 µM) in the test on Staphylococcus aureus [6]; greater than 64 µg/mL with Escherichia coli. In addition, the MIC in the test on Staphylococcus aureus [7] was 8 µg/mL (≈ 13.7 µM); in the test on Staphylococcus aureus [8] it was greater than 64 µg/mL.
For the compound `Cc1nn(-c2ccccc2)c(Oc2cccc(C(F)(F)F)c2)c1/C=C1\SC(=S)N([C@@H](Cc2ccc(O)cc2)C(=O)O)C1=O`, the MIC in the test with Staphylococcus aureus [2] is 16 µg/mL (≈ 25.6 µM); against Staphylococcus aureus [3] it was 32 µg/mL (≈ 51.1 µM); with Staphylococcus aureus [4], greater than 64 µg/mL; with Staphylococcus aureus [5] it was 16 µg/mL (≈ 25.6 µM); against Staphylococcus aureus [6] it was 16 µg/mL (≈ 25.6 µM); in the test on Escherichia coli, greater than 64 µg/mL. The minimal inhibitory concentration (MIC) against Staphylococcus aureus [7] was 32 µg/mL (≈ 51.1 µM); with Staphylococcus aureus [8], greater than 64 µg/mL.
Take `COc1ccc(Oc2c(/C=C3\SC(=S)N([C@@H](Cc4c[nH]c5ccccc45)C(=O)O)C3=O)c(C)nn2-c2ccccc2)cc1`: the minimal inhibitory concentration (MIC) was 4 µg/mL (≈ 6.55 µM) with Staphylococcus aureus [2]; 8 µg/mL (≈ 13.1 µM) with Staphylococcus aureus [3]; greater than 64 µg/mL in the test on Staphylococcus aureus [4]; 8 µg/mL (≈ 13.1 µM) against Staphylococcus aureus [5]; 4 µg/mL (≈ 6.55 µM) against Staphylococcus aureus [6]; greater than 64 µg/mL against Escherichia coli. In addition, the MIC with Staphylococcus aureus [7] is 8 µg/mL (≈ 13.1 µM); in the test on Staphylococcus aureus [8] it was greater than 64 µg/mL.
With `Cc1ccccc1Oc1c(/C=C2\SC(=S)N([C@@H](Cc3c[nH]c4ccccc34)C(=O)O)C2=O)c(C)nn1-c1ccccc1`, the MIC was 4 µg/mL (≈ 6.73 µM) in the test on Staphylococcus aureus [2]; 8 µg/mL (≈ 13.5 µM) in the test with Staphylococcus aureus [3]; greater than 64 µg/mL against Staphylococcus aureus [4]; 8 µg/mL (≈ 13.5 µM) in the test with Staphylococcus aureus [5]; 2 µg/mL (≈ 3.36 µM) in the test with Staphylococcus aureus [6]; greater than 64 µg/mL against Escherichia coli. For the same compound, the MIC is 8 µg/mL (≈ 13.5 µM) in the test on Staphylococcus aureus [7] and greater than 64 µg/mL against Staphylococcus aureus [8].
For the compound `Cc1nn(-c2ccccc2)c(Oc2ccc(Br)cc2)c1/C=C1\SC(=S)N([C@@H](Cc2ccc(O)cc2)C(=O)O)C1=O`, the minimal inhibitory concentration (MIC) against Staphylococcus aureus [2] is 8 µg/mL (≈ 12.6 µM); with Staphylococcus aureus [3] it was 8 µg/mL (≈ 12.6 µM); in the test on Staphylococcus aureus [4], greater than 64 µg/mL; with Staphylococcus aureus [5], 8 µg/mL (≈ 12.6 µM); against Staphylococcus aureus [6], 8 µg/mL (≈ 12.6 µM); in the test with Escherichia coli, greater than 64 µg/mL. Moreover, the MIC in the test with Staphylococcus aureus [7] was 8 µg/mL (≈ 12.6 µM); against Staphylococcus aureus [8] it was greater than 64 µg/mL.
For the compound `Cc1nn(-c2ccccc2)c(Oc2ccc(Cl)cc2)c1/C=C1\SC(=S)N([C@@H](Cc2ccc(O)cc2)C(=O)O)C1=O`, the MIC is 8 µg/mL (≈ 13.5 µM) against Staphylococcus aureus [2]; 8 µg/mL (≈ 13.5 µM) in the test on Staphylococcus aureus [3]; greater than 64 µg/mL against Staphylococcus aureus [4]; 16 µg/mL (≈ 27 µM) with Staphylococcus aureus [5]; 16 µg/mL (≈ 27 µM) in the test with Staphylococcus aureus [6]; greater than 64 µg/mL against Escherichia coli. Also, the figures for the MIC against Staphylococcus aureus [7] and in the test on Staphylococcus aureus [8] were 16 µg/mL (≈ 27 µM) and greater than 64 µg/mL, respectively.

A word on the MIC: it is the lowest concentration that inhibits growth of the organism. Lower therefore signals greater potency.
